Experimental data taken from US7855198B2, “Benzamide derivative or salt thereof” (Astellas Pharma Inc., priority 2003, dated 2010).
Where a name gives a salt, the structure may show the parent alone.

Key:
[1] = molecular target: T1, human VR1 (Homo sapiens, UniProt Q8NER1); experiment: Receptor binding assay ([3H]RTX) using membranes of VR1 stably expressing cell; settings: [3H]RTX binding, VR1/HEK293 membrane preparation
T1 construct: A full-length cDNA encoding human VR1 was obtained by the following method; expressed in transfected cells; membrane preparation
Protocol: A full-length cDNA encoding human VR1 was obtained by the following method. First, human brain mRNA was reverse transcribed using a reverse transcriptase to synthesize a first strand cDNA. Then, using the first strand cDNA as a template, PCR according to Hot Start method was carried out using Taq DNA polymerase. The above PCR was carried out by first conducting thermal denaturation of 98° C. (1 min) and then repeating a cycle consisting of 98° C. (15 sec)/63° C. (30 sec)/72° C. (3 min) 35 times using an oligonucleotide consisting of a base sequence of 424th to 443rd in a known human VR1 cDNA sequence (Genbank AJ277028.1) as a sense primer and an oligonucleotide consisting of a complimentary sequence of a base sequence of 3082nd to 3100th as an antisense primer.
An amplified DNA fraction was cloned using pCR-XL-TOPO vector (TOPO XL PCR Cloning Kit; Invitrogen, USA). The resulting plasmid DNA was digested with a restriction enzyme EcoRI to isolate human VR1-cDNA alone, which was then integrated into pcDNA3.1(+) plasmid (Invitrogen, USA). The above genetic engineering operations were carried out in accordance with known methods (Sambrook, J. et al, Molecular Cloning—A Laboratory Manual”, Cold Spring Harbor Laboratory Press, NY, 2001) and directions attached to individual reagents.
Next, the resulting pcDNA3.1-VR1 was transduced into HEK293 cells or CHO-KL cells. VR1/HEK293 cells were selected using a DMEM medium (Invitrogen, USA) containing 10% FBS, 100 μg/ml streptomycin, 100 U/ml penicillin, and 400 μg/ml G418 and VR1/CHO cells were selected using a HumF12 medium (Invitrogen, USA) containing 10% FBS, 100 μg/ml streptomycin, 100 U/ml penicillin, and 400 μg/ml G418 to prepare receptor stably expressing cell lines. The receptor stably expressing cells were subcultured in respective above media.
After the above VR1/HEK293 cells were cultured in glass dishes in a large quantity, the medium was removed and cells were scraped up with adding ice-cooled PBS. They were centrifuged at 1,000 rpm at 4° C. for 10 minutes. After a buffer for homogenization (25 mM Tris-HCl, 220 mM sucrose, pH 7.4) was added to the resulting sediment and the whole was homogenized, it was centrifuged at 2,200 rpm at 4° C. for 10 minutes. The resulting supernatant was centrifuged at 30,000×g at 4° C. for 20 minutes and an operation of adding 25 mM Tris-HCl, pH 7.4 to the resulting sediment and centrifuging it at 30,000×g at 4° C. for 20 minutes was repeated twice. The resulting sediment was suspended in 25 mM Tris-HCl, pH 7.4 and protein concentration was determined using a protein assay staining solution (Bio Rad, USA). The membrane preparation thus prepared was stored at −80° C.
The test was carried out by modifying the method of [Neurosci. 57: 747-757 (1993)]. Assay buffer (25 mM Tris-HCl, 0.025% BSA, pH 7.4) (147 μl), 3 μl of a test compound, 50 μl of [^3H]RTX (about 50,000 dpm; Perkin-Elmer Life Science, USA), 100 μl of the above membrane preparation (protein amount of about 25 μg) were mixed and incubated at 37° C. for 60 minutes, and then the whole was incubated on ice for 10 minutes. An ice-cooled […] (AGP; Sigma) was added in an amount of 200 μg/50 μl, followed by further 5 minutes of incubation. The completion of the incubation was effected by rapid filtration of the mixture using a GF/B filter (Perkin-Elmer Life Science, USA). After the filter was washed with ice-cooled 25 mM Tris-HCl buffer (pH 7.4) seven times, radioactivity of the filter was measured by means of a liquid scintillation counter (2500TR; Packard, USA). With regard to a specific binding, of the total binding amount of [^3H]RTX and membrane fractions of VR1 receptor stably expressing cell, a portion substituted by 1 μM RTX was regarded as a specific binding derived from VR1 receptor. Evaluation of the test compound was conducted as follows. […]

[2] = tested on: paw-licking action induced by capsaicin; experiment: Capsaicin test (paw-licking action); assay type: in vivo; settings: mouse, oral administration 30 mg/kg, 45 minutes before capsaicin; read-out: Inhibition ratio (%)
Protocol: The test was carried out in accordance with [Neuropharmacol. 31: 1279-1285 (1992)]. When 1.6 μg of capsaicin was administered to the planta of a mouse (ddY, male, 4- to 5-weeks old), a paw-licking action is induced. By measuring a time of expressing paw-licking action during 5 minutes after the administration, an inhibitory effect on pain behavior was evaluated. A test compound was administered intraperitoneally 30 minutes before the capsaicin administration or administered orally 45 minutes before the capsaicin administration. Evaluation of the test compound was conducted by determining each inhibition ratio in a test compound-administered group when the time of expressing paw-licking action in a vehicle-administered group was regarded as 100%.

T1 sequence (Q8NER1 whole entry): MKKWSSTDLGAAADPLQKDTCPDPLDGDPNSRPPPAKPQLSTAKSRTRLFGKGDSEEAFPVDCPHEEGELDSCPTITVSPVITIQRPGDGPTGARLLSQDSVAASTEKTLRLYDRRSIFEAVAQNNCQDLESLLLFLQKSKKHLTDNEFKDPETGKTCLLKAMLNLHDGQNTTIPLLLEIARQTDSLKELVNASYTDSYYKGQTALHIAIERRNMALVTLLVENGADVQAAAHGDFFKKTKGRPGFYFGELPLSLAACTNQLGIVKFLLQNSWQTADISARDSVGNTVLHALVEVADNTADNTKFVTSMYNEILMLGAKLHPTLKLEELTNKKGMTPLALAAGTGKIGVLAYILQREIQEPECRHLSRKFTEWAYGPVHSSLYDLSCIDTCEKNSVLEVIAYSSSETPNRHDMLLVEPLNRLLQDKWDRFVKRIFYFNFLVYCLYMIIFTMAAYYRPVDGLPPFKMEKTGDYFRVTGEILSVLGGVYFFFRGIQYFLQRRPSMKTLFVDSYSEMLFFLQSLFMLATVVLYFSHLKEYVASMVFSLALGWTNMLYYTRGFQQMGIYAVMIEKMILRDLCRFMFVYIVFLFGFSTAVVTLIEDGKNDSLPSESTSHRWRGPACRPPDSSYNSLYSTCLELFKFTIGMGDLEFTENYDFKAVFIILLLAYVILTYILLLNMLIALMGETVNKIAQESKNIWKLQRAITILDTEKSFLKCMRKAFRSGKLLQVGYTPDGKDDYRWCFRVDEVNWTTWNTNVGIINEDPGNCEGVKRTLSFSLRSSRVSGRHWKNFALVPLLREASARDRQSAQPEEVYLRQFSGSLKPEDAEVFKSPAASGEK

SMILES	IC50 [1] [nM]	inhibition in vivo at 30 mg/kg [2] [%]
COc1cccc(NC(=O)c2ccc(-c3ccccc3)c(CN3CCCCC3)c2)c1 [Example 1, N-(3-methoxyphenyl)-2-(piperidin-1-ylmethyl)biphenyl-4-carboxamide hydrochloride]	≤ 1000	–
O=C(Nc1ccc2scnc2c1)c1ccc(-c2ccccc2)c(CN2CCCCC2)c1 [Example 7]	≤ 1000	–
O=C(Nc1ccc2scnc2c1)c1ccc(-c2ccccc2)c(CN2CCOCC2)c1 [Example 21]	≤ 1000	–
CC(C)N(Cc1cc(C(=O)Nc2ccc3scnc3c2)ccc1-c1ccccc1)C1CCCCC1 [Example 33]	≤ 1000	66
O=C1CCc2ccc(NC(=O)c3ccc(-c4ccccc4)c(CN4CCCCC4)c3)cc2N1 [Example 60]	≤ 1000	–
CN(C)c1ccc(NC(=O)c2ccc(-c3ccccc3)c(CN3CCCCC3)c2)cn1 [Example 71]	≤ 1000	–
CN1C(=O)CCc2ccc(NC(=O)c3ccc(-c4ccccc4)c(CN4CCCCC4)c3)cc21 [Example 78]	≤ 1000	76
CC1Oc2ccc(NC(=O)c3ccc(-c4ccccc4)c(CN4CCCCC4)c3)cc2N(C)C1=O (stereo not drawn) [Example 85]	≤ 1000	86
CC1(C)C(=O)Nc2cc(NC(=O)c3ccc(-c4ccccc4)c(CN4CCCCC4)c3)ccc21 [Example 87]	≤ 1000	67
O=C(Nc1ccc2scnc2c1)c1ccc(-c2ccccc2)c(CN2CCC(F)CC2)c1 [Example 110]	≤ 1000	–
CC1CCN(C2CCCN(Cc3cc(C(=O)Nc4ccc5c(c4)NC(=O)C(C)O5)ccc3-c3ccccc3)C2)CC1 (stereo not drawn) [Example 122]	≤ 1000	–
CCN(Cc1cc(C(=O)Nc2ccc3c(c2)NC(=O)C(C)O3)ccc1-c1ccccc1)CC(C)(C)O (stereo not drawn) [Example 123]	≤ 1000	69
Cn1c(=O)ccc2ccc(NC(=O)c3ccc(-c4ccccc4)c(CN4CCCCC4)c3)cc21 [Example 129]	≤ 1000	91
Cc1cc2ccc(NC(=O)c3ccc(-c4ccccc4)c(CN4CCCCC4)c3)cc2[nH]c1=O [Example 130]	≤ 1000	62
CCN(CC)Cc1cc(C(=O)Nc2cc3c(c(C(F)(F)F)c2)CC(=O)N3)ccc1-c1ccccc1 [Example 143]	≤ 1000	–
CN1C(=O)CCc2ccc(NC(=O)c3ccc(-c4cccs4)c(CN4CCCCC4)c3)cc21 [Example 163]	≤ 1000	–
CCN(Cc1cc(C(=O)Nc2ccc3c(c2)N(C)C(=O)CC3)ccc1-c1ccccc1)C1CCOCC1 [Example 170]	≤ 1000	68
CCN(Cc1cc(C(=O)Nc2ccc3c(c2)N(C)C(=O)CC3)ccc1-c1ccccc1)C1CCSCC1 [Example 181]	≤ 1000	–
CC(C)CN(CCN1CCCCC1)Cc1cc(C(=O)Nc2ccc3c(c2)NC(=O)C(C)O3)ccc1-c1ccccc1 (stereo not drawn) [Example 195]	≤ 1000	–
